Assay results reported in patent publication US7927811B2, “Polypeptides having brain-localizing activity and uses thereof” (Proteus Sciences Co., Ltd., priority 2003, dated 2011).

System: mouse brain tissues (cerebral parenchyma)
Assay: Brain-localizing peptide conjugates bound to gold colloids administered to mice; transmission electron microscopy of brain tissue sections
Type: in vivo
Settings: biotin-conjugated peptide + avidin-gold particles administered to mice; electron micrographs, hippocampal pyramidal cells and cerebellar Purkinje cell region
Description: The present inventors produced brain-localizing peptide conjugates. The conjugates are molecules that can have a cyclic structure due to the formation of a disulfide bond between cysteine residues in a peptide molecule of the present invention, and may also have biotin attached to them. The conjugates have affinity to avidin compounds.
The conjugates were bound to gold colloids and administered to mice, and the mice were subjected to experiments that evaluate the brain-localizing activity of the peptides of the present invention (observation of brain tissue sections under a transmission electron microscope).
[Section Preparation] • (i) trimming • (ii) preparation of thick sections (2 to 3 μm thick) using a glass knife • (iii) preparation of ultra-thin sections (50 to 100 nm thick) using a diamond knife • (iv) electron staining: 2% uranium acetate and then 1% lead citrate (3 minutes each) • (v) transmission electron microscope observation (acceleration voltage of 80 kV)
In the present experiment, T2J002 (SEQ ID NO: 2) and T2J004 (SEQ ID NO: 4) were used as peptides of the present invention. The arrows show positions of the gold particle-bound peptide molecules of the present invention. […] More specifically, the peptides of the present invention were confirmed to have brain-localizing activity.

For CSLNTRSQC [T2J002], the “transport of gold colloids into the cerebral parenchyma (brain-localizing activity)” value was “successfully transport the gold colloids into the cerebral parenchyma”.

In the case of CVVRHLQQC [T2J004], the “transport of gold colloids into the cerebral parenchyma (brain-localizing activity)” value is reported as “successfully transport the gold colloids into the cerebral parenchyma”.
